In PubChem BioAssay AID2060341 (Molecular Pharmacology Branch, DTP, NCI, 2025):
Where “and” joins values, the source holds several entries; their conditions need not be identical. Identical values can stand only once.

Tested on: 327498-153-R-J2-PDC multicell spheroid viability
Test: Anticancer human tumor 327498-153-R-J2-PDC patient-derived uterine carcinosarcoma cell line growth inhibition [IpAb]
Settings: for viability, T/C: stronger effect = lower value
Method in brief: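 Combinations with ipatasertib or abemaciclib were tested on tumour spheroids holding HUVEC (25%) and MSC (15%) alongside 60% malignant cells. Top concentration was at or near clinical Cmax (10 microM if undefined), descending in half-log steps.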

[1] = curve of first compound, second compound 0.1 µM
[2] = curve of first compound, second compound 0.316 µM
[3] = curve of first compound, second compound 1 µM
[4] = second compound 0.1 µM, first compound 0.0316 µM
[5] = second compound 0.1 µM, first compound 0.1 µM
[6] = second compound 0.316 µM, first compound 0.0316 µM
[7] = second compound 0.316 µM, first compound 0.1 µM
[8] = second compound 1 µM, first compound 0.0316 µM
[9] = second compound 1 µM, first compound 0.1 µM
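Note: spheroids exposed to agents for 7 days.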
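Throughout, for viability, T/C: 100% = DMSO vehicle control viability.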

`CC(C)n1nc(-c2ccc3oc(N)nc3c2)c2c(N)ncnc21` + CC(C)NCC(C(=O)N1CCN(c2ncnc3c2C(C)CC3O)CC1)c1ccc(Cl)cc1 was tested, and the IC50 [1] was 0.0053 µM, the IC50 [2] was 0.00176 µM and the IC50 [3] was 0.000442 µM. For the same compound, the IC50 (curve of first compound, second compound 3.16 µM) was less than 0.000316 µM, the IC50 (curve of first compound, second compound 10 µM) was less than 0.000316 µM and the viability, T/C (second compound 0.1 µM, first compound 0.000316 µM) was 83.5%. It also gave a viability, T/C (second compound 0.1 µM, first compound 0.001 µM) of 80%, a viability, T/C (second compound 0.1 µM, first compound 0.00316 µM) of 60.3% and a viability, T/C (second compound 0.1 µM, first compound 0.01 µM) of 36.6%. For the same compound, the viability, T/C [4] was 20.7%, the viability, T/C [5] was 15.7% and the viability, T/C (second compound 0.316 µM, first compound 0.000316 µM) was 74.6%. For the same compound, the viability, T/C (second compound 0.316 µM, first compound 0.001 µM) was 56.5%, the viability, T/C (second compound 0.316 µM, first compound 0.00316 µM) was 44% and the viability, T/C (second compound 0.316 µM, first compound 0.01 µM) was 24.4%. For the same compound, the viability, T/C [6] was 16.6%, the viability, T/C [7] was 13.3% and the viability, T/C (second compound 1 µM, first compound 0.000316 µM) was 55.1%. It also gave a viability, T/C (second compound 1 µM, first compound 0.001 µM) of 36.9%, a viability, T/C (second compound 1 µM, first compound 0.00316 µM) of 28.4% and a viability, T/C (second compound 1 µM, first compound 0.01 µM) of 16.8%. It also gave a viability, T/C [8] of 10.6%, a viability, T/C [9] of 11% and a viability, T/C (second compound 3.16 µM, first compound 0.000316 µM) of 39.2%. The viability, T/C (second compound 3.16 µM, first compound 0.001 µM) was 29.1%, the viability, T/C (second compound 3.16 µM, first compound 0.00316 µM) was 19.9% and the viability, T/C (second compound 3.16 µM, first compound 0.01 µM) was 11.5%. For the same compound, the viability, T/C (second compound 3.16 µM, first compound 0.0316 µM) was 8.42%, the viability, T/C (second compound 3.16 µM, first compound 0.1 µM) was 7.91% and the viability, T/C (second compound 10 µM, first compound 0.000316 µM) was 26.9%. The viability, T/C (second compound 10 µM, first compound 0.001 µM) was 24%, the viability, T/C (second compound 10 µM, first compound 0.00316 µM) was 13.7% and the viability, T/C (second compound 10 µM, first compound 0.01 µM) was 9.73%. It also gave a viability, T/C (second compound 10 µM, first compound 0.0316 µM) of 6.51% and a viability, T/C (second compound 10 µM, first compound 0.1 µM) of 6.09%.

Work on `C=CCn1c(=O)c2cnc(Nc3ccc(N4CCN(C)CC4)cc3)nc2n1-c1cccc(C(C)(C)O)n1` + CCN1CCN(Cc2ccc(Nc3ncc(F)c(-c4cc(F)c5nc(C)n(C(C)C)c5c4)n3)nc2)CC1 yielded an IC50 (curve of first compound, second compound 0.01 µM) of 0.318 µM, an IC50 (curve of first compound, second compound 0.0316 µM) of 0.261 µM and an IC50 [1] of 0.222 µM. For the same compound, the IC50 [2] was 0.25 µM, the IC50 [3] was 0.313 µM and the viability, T/C (second compound 0.01 µM, first compound 0.0316 µM) was 94.3%. The viability, T/C (second compound 0.01 µM, first compound 0.1 µM) was 88.5%, the viability, T/C (second compound 0.01 µM, first compound 0.316 µM) was 50.6% and the viability, T/C (second compound 0.01 µM, first compound 1 µM) was 5.09%. It also gave a viability, T/C (second compound 0.01 µM, first compound 3.16 µM) of 4.75%, a viability, T/C (second compound 0.01 µM, first compound 10 µM) of 5.85% and a viability, T/C (second compound 0.0316 µM, first compound 0.0316 µM) of 84.4%. For the same compound, the viability, T/C (second compound 0.0316 µM, first compound 0.1 µM) was 76.9%, the viability, T/C (second compound 0.0316 µM, first compound 0.316 µM) was 44.9% and the viability, T/C (second compound 0.0316 µM, first compound 1 µM) was 6.81%. For the same compound, the viability, T/C (second compound 0.0316 µM, first compound 3.16 µM) was 5.01%, the viability, T/C (second compound 0.0316 µM, first compound 10 µM) was 6.96% and the viability, T/C [4] was 69.1%. It also gave a viability, T/C [5] of 68.5%, a viability, T/C (second compound 0.1 µM, first compound 0.316 µM) of 41.9% and a viability, T/C (second compound 0.1 µM, first compound 1 µM) of 11.1%. It also gave a viability, T/C (second compound 0.1 µM, first compound 3.16 µM) of 7.8%, a viability, T/C (second compound 0.1 µM, first compound 10 µM) of 9.75% and a viability, T/C [6] of 66.2%. For the same compound, the viability, T/C [7] was 61.1%, the viability, T/C (second compound 0.316 µM, first compound 0.316 µM) was 47.3% and the viability, T/C (second compound 0.316 µM, first compound 1 µM) was 24%. It also gave a viability, T/C (second compound 0.316 µM, first compound 3.16 µM) of 14.6%, a viability, T/C (second compound 0.316 µM, first compound 10 µM) of 14.8% and a viability, T/C [8] of 60.6%. For the same compound, the viability, T/C [9] was 58.6%, the viability, T/C (second compound 1 µM, first compound 0.316 µM) was 50.4% and the viability, T/C (second compound 1 µM, first compound 1 µM) was 31.8%. It also gave a viability, T/C (second compound 1 µM, first compound 3.16 µM) of 20.7% and a viability, T/C (second compound 1 µM, first compound 10 µM) of 14.9%.

`Cn1nccc1Nc1nccc(-c2ccn(C(CO)c3ccc(Cl)c(F)c3)c(=O)c2)n1` (stereo not drawn) was tested, and the viability, T/C (compound 0.0316 µM) was 99.2% and 102%, the viability, T/C (compound 0.1 µM) was 97.9% and 90.4% and the viability, T/C (compound 0.316 µM) was 98.9% and 92%. The viability, T/C (compound 1 µM) was 83.2% and 93.5%, the viability, T/C (compound 3.16 µM) was 64.7% and 54.9% and the viability, T/C (compound 10 µM) was 34.4% and 29.1%. For the same compound, the IC50 (curve of compound) was 5.45 µM and 3.93 µM.

`CC(=O)c1c(C)c2cnc(Nc3ccc(N4CCNCC4)cn3)nc2n(C2CCCC2)c1=O` was tested, and the viability, T/C (compound 0.000949 µM) was 106% and 97.8%, the viability, T/C (compound 0.003 µM) was 96.7% and 103% and the viability, T/C (compound 0.00949 µM) was 99.7% and 95.5%. The viability, T/C (compound 0.03 µM) was 79.2% and 89.8%, the viability, T/C (compound 0.0949 µM) was 70.2% and 70.4% and the viability, T/C (compound 0.3 µM) was 71% and 56.5%. The IC50 (curve of compound) was greater than 0.3 µM.

In the case of `CC(C)n1nc(-c2ccc3oc(N)nc3c2)c2c(N)ncnc21`, the viability, T/C (compound 0.000316 µM) is reported as 103% and 88.9%, the viability, T/C (compound 0.001 µM) is reported as 96.1% and 101% and the viability, T/C (compound 0.00316 µM) is reported as 81.9% and 88%. For the same compound, the viability, T/C (compound 0.01 µM) was 54.3% and 52.7%, the viability, T/C (compound 0.0316 µM) was 31.7% and 27.2% and the viability, T/C (compound 0.1 µM) was 19.6% and 18.2%. For the same compound, the IC50 (curve of compound) was 0.0127 µM and 0.0115 µM.

In the case of `CC(C)(C)c1cnc(CSc2cnc(NC(=O)C3CCNCC3)s2)o1`, the viability, T/C (compound 0.00949 µM) is reported as 106% and 96.9%, the viability, T/C (compound 0.03 µM) is reported as 108% and 105% and the viability, T/C (compound 0.0949 µM) is reported as 95.8% and 93.2%. The viability, T/C (compound 0.3 µM) was 4.76% and 7%, the viability, T/C (compound 0.949 µM) was 0.89% and 1.1% and the viability, T/C (compound 3 µM) was 0.6% and 0.58%. The IC50 (curve of compound) was 0.169 µM.
